Measurements as given in the NIST ThermoML archive (doi:10.1021/je050509f).
± gives the expanded uncertainty stated by the source.

Experiment: mn = molality of the nth substance listed, in mol/kg
Conditions: Liquid, Vibrating tube method

[Cl-].[Cl-].[Zn+2] [zinc chloride] + CO
mass density [kg/m3]
Conditions	323.24 K	348.27 K
305 kPa, m1 = 1.977	–	904.26 ± 0.42
308 kPa, m1 = 0.1348	–	752.15 ± 0.43
320 kPa, m1 = 0.4768	–	782.8 ± 0.43
328 kPa, m1 = 0.8018	–	810.17 ± 0.43
330 kPa, m1 = 1.039	–	829.39 ± 0.42
335 kPa, m1 = 5.367	–	1141.63 ± 0.43
4982 kPa, m1 = 5.367	–	1146.29 ± 0.43
4983 kPa, m1 = 0.4768	–	788.73 ± 0.44
4984 kPa, m1 = 1.977	–	909.72 ± 0.42
4989 kPa, m1 = 0.1348	–	758.25 ± 0.44
4994 kPa, m1 = 1.039	–	835.08 ± 0.43
4999 kPa, m1 = 0.8018	–	816.01 ± 0.43
9985 kPa, m1 = 1.977	–	915.25 ± 0.42
9992 kPa, m1 = 0.8018	–	821.86 ± 0.44
9992 kPa, m1 = 5.367	–	1151.14 ± 0.44
9993 kPa, m1 = 0.1348	–	764.3 ± 0.46
9994 kPa, m1 = 0.4768	818.67 ± 0.44	–
9997 kPa, m1 = 5.367	1181.61 ± 0.45	–
9998 kPa, m1 = 0.4768	–	794.7 ± 0.45
10000 kPa, m1 = 1.039	–	840.82 ± 0.44
10002 kPa, m1 = 0.8018	846.25 ± 0.44	–
10003 kPa, m1 = 0.1348	787.77 ± 0.45	–
10005 kPa, m1 = 1.039	865.32 ± 0.43	–
14982 kPa, m1 = 0.4768	823.55 ± 0.45	–
14985 kPa, m1 = 0.4768	–	800.24 ± 0.46
14985 kPa, m1 = 0.8018	–	827.35 ± 0.45
14987 kPa, m1 = 1.039	–	846.22 ± 0.45
14992 kPa, m1 = 1.977	–	920.51 ± 0.43
14998 kPa, m1 = 1.977	946.2 ± 0.42	–
14999 kPa, m1 = 0.1348	792.71 ± 0.47	769.95 ± 0.48
14999 kPa, m1 = 1.039	870.09 ± 0.44	–
15002 kPa, m1 = 0.8018	851.11 ± 0.44	–
15002 kPa, m1 = 5.367	1185.89 ± 0.46	–
15020 kPa, m1 = 5.367	–	1155.81 ± 0.45
19986 kPa, m1 = 1.977	–	925.5 ± 0.43
19989 kPa, m1 = 0.4768	–	805.48 ± 0.48
19994 kPa, m1 = 0.8018	–	832.56 ± 0.46
19995 kPa, m1 = 0.4768	828.21 ± 0.47	–
19998 kPa, m1 = 5.367	1190.03 ± 0.48	–
19999 kPa, m1 = 0.8018	855.74 ± 0.45	–
19999 kPa, m1 = 1.977	950.72 ± 0.42	–
20000 kPa, m1 = 0.1348	797.39 ± 0.48	–
20003 kPa, m1 = 1.039	874.64 ± 0.44	–
24989 kPa, m1 = 0.8018	860.16 ± 0.46	–
24989 kPa, m1 = 1.977	955.05 ± 0.42	–
24989 kPa, m1 = 5.367	1194.06 ± 0.5	–
24990 kPa, m1 = 1.039	878.98 ± 0.45	–
24994 kPa, m1 = 0.1348	801.85 ± 0.5	–
24999 kPa, m1 = 0.4768	832.65 ± 0.48	–
29987 kPa, m1 = 0.4768	836.86 ± 0.49	–
29989 kPa, m1 = 0.8018	864.4 ± 0.47	–
29990 kPa, m1 = 1.977	959.23 ± 0.43	–
29993 kPa, m1 = 0.1348	806.09 ± 0.52	–
30001 kPa, m1 = 5.367	1197.99 ± 0.52	–
30007 kPa, m1 = 1.039	883.18 ± 0.46	–
34987 kPa, m1 = 5.367	1201.8 ± 0.55	–
34989 kPa, m1 = 1.039	887.17 ± 0.47	–
34998 kPa, m1 = 0.8018	868.48 ± 0.48	–
35001 kPa, m1 = 1.977	963.27 ± 0.43	–
35003 kPa, m1 = 0.4768	840.94 ± 0.51	–
35007 kPa, m1 = 0.1348	810.14 ± 0.53	–
39991 kPa, m1 = 1.039	891.04 ± 0.48	–
39994 kPa, m1 = 0.4768	844.83 ± 0.52	–
39995 kPa, m1 = 0.8018	872.4 ± 0.49	–
39995 kPa, m1 = 5.367	1205.55 ± 0.58	–
39997 kPa, m1 = 0.1348	814 ± 0.55	–
39997 kPa, m1 = 1.977	967.17 ± 0.42	–
